Assay results: PubChem BioAssay (NCI)
Several values for one entry are separate records, joined by “and”; a condition that tells them apart may be missing. Identical values can stand only once.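 Results reflect a 48-hour exposure of cells in 96-well plates to compound at five concentrations. GI50 = concentration required for 50% inhibition of growth. TGI is the concentration that stops growth completely.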

Tests used:
Assay in all cases: NCI-60 cell line screen, 48 h
[1] = tested on: HCT-15 colon
[2] = tested on: BT-549 breast
[3] = tested on: MCF7 breast
[4] = tested on: SF-539 CNS
[5] = tested on: UO-31 renal
[6] = tested on: HL-60(TB) leukemia
[7] = tested on: SR leukemia
[8] = tested on: SF-268 CNS
[9] = tested on: NCI-H226 lung
[10] = tested on: SF-295 CNS

| SMILES | GI50 [1] | TGI [1] | GI50 [2] | TGI [2] | GI50 [3] | TGI [3] | GI50 [4] | TGI [4] | GI50 [5] | TGI [5] | GI50 [6] | TGI [6] | GI50 [7] | TGI [7] | GI50 [8] | TGI [8] | GI50 [9] | TGI [9] | GI50 [10] | TGI [10] |
| --- | --- | --- | --- | --- | --- | --- | --- | --- | --- | --- | --- | --- | --- | --- | --- | --- | --- | --- | --- | --- |
| COc1cc(-c2nn(-c3cccc(NC(=O)CCN4CCN(Cc5ccccc5)CC4)c3)cc2-c2ccncc2)ccc1Cl | 0.635 µM | 3.72 µM | 2.27 µM | 8.59 µM | 0.386 µM | 3.27 µM | 1.14 µM | 2.58 µM | 0.887 µM | 6.56 µM | 0.632 µM | 4.21 µM | 0.393 µM | 2.48 µM | 1.05 µM | 3.84 µM | 2.91 µM | 47.7 µM | 0.482 µM | 1.95 µM |
| COc1ccc(/C=C(/C)[N+](=O)[O-])cc1OC | 2.08 µM and 1.02 µM | 5.47 µM and 2.67 µM | 3.74 µM and 2.07 µM | 8.87 µM and 3.92 µM | 1.23 µM and 1.09 µM | 3.26 µM and 2.57 µM | 2.08 µM and 2.22 µM | 3.94 µM and 4.7 µM | 1.74 µM and 1.61 µM | 3.26 µM and 3.23 µM | 2.42 µM and 2.47 µM | 5.76 µM and 8.93 µM | 1.26 µM | 7 µM | 2.82 µM and 3.61 µM | 7.13 µM and 13.2 µM | 5.03 µM and 3.71 µM | 9.63 µM and 13.4 µM | 17.4 µM and 12.5 µM | 32.4 µM and 27.1 µM |
| COc1cc2c(cc1F)C(c1ccccc1Cl)=Nc1c(n[nH]c1C)N2 | 0.705 µM | 19.7 µM | 2.7 µM | 20.5 µM | 1.03 µM | 20.7 µM | 0.389 µM | 2.39 µM | 0.84 µM | 6.25 µM | 0.838 µM | 20.8 µM | 0.417 µM | 32.8 µM | 1.14 µM | 11.7 µM | 0.532 µM | 16.3 µM | 0.477 µM | 15.7 µM |
| Oc1cc(-n2cccn2)c(O)cc1-n1cccn1 |  | 51.6 µM |  | 35.7 µM |  | 55.1 µM |  | > 78.6 µM |  | 54.2 µM |  | 15.6 µM |  | 73.3 µM |  | > 82.5 µM |  | > 89 µM |  | 60.2 µM |
| Fc1ccc(/C=N/n2c(-c3ccc(F)c(Cl)c3)n[nH]c2=S)cc1 |  |  | 78.5 µM | > 100 µM | 19.7 µM | 43 µM | 32 µM | > 100 µM | 18.9 µM | 41.5 µM | 34.8 µM | > 100 µM | 12.9 µM | 27.9 µM | 19.8 µM | 42.1 µM | 36.5 µM | 83.8 µM | 31.7 µM | 76.8 µM |
| Cc1cc(C)c(C2CNCc3cc4c(cc32)CNCC4c2c(C)cc(C)cc2C)c(C)c1 (configuration not stated) | 4.13 µg/mL | 14.2 µg/mL | 4.39 µg/mL | 15.9 µg/mL | 5.42 µg/mL | 20.1 µg/mL | 2.23 µg/mL | 3.85 µg/mL | 2.04 µg/mL | 5.56 µg/mL | 1.81 µg/mL | 4.3 µg/mL | 0.303 µg/mL | 1 µg/mL | 3.17 µg/mL | 9.96 µg/mL | 13.4 µg/mL | 26.5 µg/mL | 3.44 µg/mL | 13.1 µg/mL |
| CN=C1OC2(c3ccccc3)C3=C(OC(=NC)N2C)C(=O)OC3(c2ccccc2)N1C (configuration not stated) |  | > 100 µM |  | > 100 µM |  | > 100 µM |  | > 100 µM |  |  |  | > 100 µM |  | > 100 µM |  | > 100 µM |  | > 100 µM |  | > 100 µM |
